Measured values: publication PMC8624133, “10th Trends in Medical Mycology Held on 8 to 11 October 2021, Aberdeen, Scotland, Organized by the European Confederation of Medical Mycology (ECMM)” (Journal of Fungi, 2021)
In brackets after ≈: the same amount, converted by molar mass.

How the values were obtained:
[1] = ECMM multinational study, risk factors for CAPA; assay type: in vivo, human; settings: critically ill COVID-19 patients in ICU, 592 patients
Source text: Methods: The European Confederation of Medical Mycology (ECMM) conducted a multinational study including 20 centers from nine different countries to assess epidemiology, diagnosis, risk factors, treatment and outcome of CAPA. CAPA was defined according to ECMM/ISHAM consensus definitions.

A. fumigatus biofilm = experiment: Antibiofilm activity, XTT assay; assay type: cell-based, Aspergillus fumigatus
Procedure: (§1) Materials & Methods: Olorofim activity has been analyzed at different stages (prior adhesion, 4 h, 12 h, 24 h and 48 h after inoculation) of biofilm formation of clinical ARAF strains (n = 16) as well as azole susceptible A. fumigatus isolates (n = 4) by using an XTT assay. Olorofim was applied in concentrations of a total, a half, a quarter and an eighth of the previously determined minimum inhibitory concentrations (MICs) by broth microdilution method after EUCAST.

[2] = test system: A. fumigatus isolates (ARAF and azole susceptible); experiment: Broth microdilution after EUCAST; assay type: cell-based; settings: Aspergillus fumigatus; range, 16 ARAF and 4 azole susceptible isolates
Procedure: as §1

| Molecule | hazard ratio for CAPA [1] | biofilm reduction (A. fumigatus biofilm; added prior to adhesion (t0) and right after adhesion (t4), compared to non-treated control) | effect on mature biofilm (A. fumigatus biofilm; t24 & t48) | MIC [2] |
| --- | --- | --- | --- | --- |
| tocilizumab: tocilizumab received by COVID-19 ICU patients | 2.45 |  |  |  |
| Cc1cc(-c2ccccc2)c(C(=O)C(=O)Nc2ccc(N3CCN(c4ncc(F)cn4)CC3)cc2)n1C [olorofim] |  | up to 96% | did not show an effect | 0.008 to 0.03 µg/mL (≈ 0.016 to 0.0602 µM) |
